Measurements taken from patent US20160193206A1, “BET-PROTEIN-INHIBITING DIHYDROPYRIDOPYRAZINONES” (BAYER PHARMA AKTIENGESELLSCHAFT, priority 2012, published 2016).

What was measured:
[1] = biological target: T1, BRD4 bromo domain 2 [BRD4(2)] (Homo sapiens, UniProt O60885); assay: BRD4(2)/acetylated peptide H4 binding assay (TR-FRET); details: inhibition of interaction between His6-tagged BRD4(2) (amino acids 357-445) and acetylated histone H4 peptide
T1 construct: N-terminally His6-tagged BRD4(2) (amino acids 357-445); made in house; host or cells: E. coli
Text: (§1) Protein-Protein Interaction Assay: BRD4/Acetylated Peptide H4 Binding Assay
2. Assay Description for BRD4 Bromo Domain 2 [BRD4(2)]
To assess the BRD4(2) binding strength of the substances described in this application, the ability thereof to inhibit the interaction between BRD4(2) and acetylated histone H4 in a dose-dependent manner was quantified.
(§2) For this purpose, a time-resolved fluorescence resonance energy transfer (TR-FRET) assay was used, which measures the binding between N-terminally His6-tagged BRD4(2) (amino acids 357-445) and a synthetic acetylated histone H4 (Ac-H4) peptide with sequence SGRGK(Ac)GGK(Ac)GLGK(Ac)GGAK(Ac)RHRKVLRDNGSGSK-biotin. The recombinant BRD4(2) protein produced in-house according to Filippakopoulos et al., Cell, 2012, 149:214-231 was expressed in E. coli and purified by means of (Ni-NTA) affinity and (Sephadex G-75) size exclusion chromatography. The Ac-H4 peptide can be purchased, for example, from Biosyntan (Berlin, Germany).
(§3) In the assay, typically 11 different concentrations of each substance (0.1 nM, 0.33 nM, 1.1 nM, 3.8 nM, 13 nM, 44 nM, 0.15 μM, 0.51 μM, 1.7 μM, 5.9 μM and 20 μM) were analysed as duplicates on the same microtitre plate. For this purpose, 100-fold concentrated solutions in DMSO were prepared by serial dilutions (1:3.4) of a 2 mM stock solution into a clear, 384-well microtitre plate (Greiner Bio-One, Frickenhausen, Germany). From this, 50 nl were transferred into a black test plate (Greiner Bio-One, Frickenhausen, Germany). The test was started by the addition of 2 μl of a 2.5-fold concentrated BRD4(2) solution (final concentration typically 100 nM in the 5 μl of reaction volume) in aqueous assay buffer [50 mM HEPES pH 7.5, 50 mM sodium chloride (NaCl); 50 mM potassium fluoride (KF); 0.25 mM CHAPS and 0.05% serum albumin (BSA)] to the substances in the test plate. This was followed by a 10-minute incubation step at 22° C. for the pre-equilibration of putative complexes between BRD4(2) and the substances.
(§4) The mixture was then incubated in the dark at 22° C. for one hour and then at 4° C. for at least 3 hours and for no longer than overnight. The formation of BRD4(2)/Ac-H4 complexes was determined by the measurement of the resonance energy transfer from the streptavidin-Eu chelate to the anti-6His-XL665 antibody present in the reaction. For this purpose, the fluorescence emission was measured at 620 nm and 665 nm after excitation at 330-350 nm in a TR-FRET measuring instrument, for example a Rubystar or Pherastar (both from BMG Lab Technologies, Offenburg, Germany) or a Viewlux (Perkin-Elmer). The ratio of the emissions at 665 nm and at 622 nm was taken as an indicator of the amount of BRD4(2)/Ac-H4 complexes formed.
(§5) The data (ratios) obtained were normalized, with 0% inhibition corresponding to the mean from the measurements for a set of controls (typically 32 data points) in which all the reagents were present. In these, in place of test substances, 50 nl of DMSO (100%) were used. Inhibition of 100% corresponded to the mean from the measurements for a set of controls (typically 32 data points) in which all the reagents except BRD4(2) were present. The IC50 was determined by regression analysis based on a 4-parameter equation (minimum, maximum, IC50, Hill; Y=max+(min−max)/(1+(X/IC50)Hill).

[2] = biological target: T2, BRD4 bromo domain 1 [BRD4(1)] (Homo sapiens, UniProt O60885); assay: BRD4(1)/acetylated peptide H4 binding assay (TR-FRET); details: inhibition of interaction between His6-tagged BRD4(1) (amino acids 67-152) and acetylated histone H4 peptide
T2 construct: N-terminally His6-tagged BRD4(1) (amino acids 67-152); made in house; host or cells: E. coli
Text: as §1
1. Assay Description for BRD4 Bromo Domain 1 [BRD4(1)]
To assess the BRD4(1) binding strength of the substances described in this application, the ability thereof to inhibit the interaction between BRD4(1) and acetylated histone H4 in a dose-dependent manner was quantified.
as §2, with “BRD4(1)” for “BRD4(2)”, “67-152)” for “357-445)”, “GRGK(Ac)GGK(Ac)GLGK(Ac)GGAK(Ac)RHGSGSK-biotin.” for “SGRGK(Ac)GGK(Ac)GLGK(Ac)GGAK(Ac)RHRKVLRDNGSGSK-biotin.”
as §3, with “concentrated BRD4(1)” for “concentrated BRD4(2)”, “typically 10” for “typically 100”, “chloride (NaCl),” for “chloride (NaCl); 50 mM potassium fluoride (KF);”, “between BRD4(1)” for “between BRD4(2)”
as §4, with “BRD4(1)/Ac-H4” for “BRD4(2)/Ac-H4”, “cryptate” for “chelate”
as §5, with “BRD4(1)” for “BRD4(2)”

Row | IC50 [1] [µM] | IC50 [2] [µM] | Structure (SMILES)
1 | 0.156 | 0.3 | COc1cc(C(=O)N2CC3(CCS3(=O)=O)C2)ccc1Nc1ccc2c(n1)N(C1CCCCC1)[C@H](C)C(=O)N2C [Example 74, (3R)-4-Cyclohexyl-6-({4-[(1,1-dioxido-1-thia-6-azaspiro[3.3]hept-6-yl)carbonyl]-2-methoxyphenyl}amino)-1,3-dimethyl-3,4-dihydropyrido[2,3-b]pyrazin-2(1H)-one]
2 | 0.273 | 0.84 | C[C@@H]1C(=O)N(C)c2ccc(Nc3ccc(C(=O)N4CCN(C(=O)OC(C)(C)C)CC4)cc3)nc2N1Cc1ccccc1 [Example 76, tert-Butyl 4-(4-{[(3R)-4-benzyl-1,3-dimethyl-2-oxo-1,2,3,4-tetrahydropyrido[2,3-b]pyrazin-6-yl]amino}benzoyl)piperazine-1-carboxylate]
3 | 0.165 | 0.448 | COc1cc(C(=O)N2CC3(CCS3(=O)=O)C2)ccc1Nc1ccc2c(n1)N(C1CCCCCC1)[C@H](C)C(=O)N2C [Example 84, (3R)-4-Cycloheptyl-6-({4-[(1,1-dioxido-1-thia-6-azaspiro[3.3]hept-6-yl)carbonyl]-2-methoxyphenyl}amino)-1,3-dimethyl-3,4-dihydropyrido[2,3-b]pyrazin-2(1H)-one]
4 | 0.098 | 0.186 | C[C@@H]1C(=O)N(C)c2ccc(Nc3ccc(C(=O)NC4CN(C)C4)cc3)nc2N1C1CCCCCC1 [Example 85, 4-{[(3R)-4-Cycloheptyl-1,3-dimethyl-2-oxo-1,2,3,4-tetrahydropyrido[2,3-b]pyrazin-6-yl]amino}-N-(1-methylazetidin-3-yl)benzamide]
5 | 0.1 | 0.18 | CC(=O)N1CCC(NC(=O)c2ccc(Nc3ccc4c(n3)N(C3CCCCCC3)[C@H](C)C(=O)N4C)cc2)CC1 [Example 86, N-(1-Acetylpiperidin-4-yl)-4-{[(3R)-4-cycloheptyl-1,3-dimethyl-2-oxo-1,2,3,4-tetrahydropyrido[2,3-b]pyrazin-6-yl]amino}benzamide]
6 | 0.075 | 0.216 | COc1cc(C(=O)NC2CN(C)C2)ccc1Nc1ccc2c(n1)N(C1CCCCCC1)[C@H](C)C(=O)N2C [Example 87, 4-{[(3R)-4-Cycloheptyl-1,3-dimethyl-2-oxo-1,2,3,4-tetrahydropyrido[2,3-b]pyrazin-6-yl]amino}-3-methoxy-N-(1-methylazetidin-3-yl)benzamide]
7 | 0.146 | 0.339 | COc1cc(C(=O)NC2CCN(C(C)=O)CC2)ccc1Nc1ccc2c(n1)N(C1CCCCCC1)[C@H](C)C(=O)N2C [Example 88, N-(1-Acetylpiperidin-4-yl)-4-{[(3R)-4-cycloheptyl-1,3-dimethyl-2-oxo-1,2,3,4-tetrahydropyrido[2,3-b]pyrazin-6-yl]amino}-3-methoxybenzamide]
8 | 0.093 | 0.185 | C[C@@H]1C(=O)N(C)c2ccc(Nc3ccc(C(=O)NCCN4CCN(C)CC4)cc3)nc2N1C1CCCCCC1 [Example 89, 4-{[(3R)-4-Cycloheptyl-1,3-dimethyl-2-oxo-1,2,3,4-tetrahydropyrido[2,3-b]pyrazin-6-yl]amino}-N-{2-(4-methylpiperazin-1-yl)ethyl]benzamide]
9 | 0.208 | 0.341 | C[C@@H]1C(=O)N(C)c2ccc(Nc3ccc(C(=O)NC4CCC(O)CC4)cc3)nc2N1C1CCCCCC1 (stereo partly drawn) [Example 90, 4-{[(3R)-4-Cycloheptyl-1,3-dimethyl-2-oxo-1,2,3,4-tetrahydropyrido[2,3-b]pyrazin-6-yl]amino}-N-(4-hydroxycyclohexyl)benz-amide]
10 | 0.209 | 0.325 | CC(C)N1CCN(C(=O)c2ccc(Nc3ccc4c(n3)N(C3CCCCCC3)[C@H](C)C(=O)N4C)cc2)CC1 [Example 92, (3R)-4-Cylcoheptyl-1,3-dimethyl-6-[(4-{[4-(propan-2-yl)piperazin-1-yl]carbonyl}phenyl)amino]-3,4-dihydropyrido[2,3-b]pyrazin-2(1H)-one]
11 | 0.09 | 0.317 | C[C@@H]1C(=O)N(C)c2ccc(Nc3ccc(C(=O)N4CC5(COC5)C4)cc3)nc2N1C1CCCCCC1 [Example 93, (3R)-4-Cycloheptyl-1,3-dimethyl-6-{[4-(2-oxa-6-azaspiro[3.3]hept-6-ylcarbonyl)phenyl]amino}-3,4-dihydropyrido[2,3-b]pyrazin-2(1H)-one]
12 | 0.111 | 0.156 | C[C@@H]1C(=O)N(C)c2ccc(Nc3ccc(S(=O)(=O)N(C)C)cc3)nc2N1Cc1ccccc1 [Example 94, 4-{[(3R)-4-Benzyl-1,3-dimethyl-2-oxo-1,2,3,4-tetrahydropyrido[2,3-b]pyrazin-6-yl]amino}-N,N-dimethylbenzenesulphonamide]
13 | 0.126 | 0.589 | C[C@@H]1C(=O)N(C)c2ccc(Nc3ccc(S(=O)(=O)N(C)C)cc3)nc2N1C1CCCCCC1 [Example 95, 4-{[(3R)-4-Cycloheptyl-1,3-dimethyl-2-oxo-1,2,3,4-tetrahydropyrido[2,3-b]pyrazin-6-yl]amino}-N,N-dimethylbenzenesulphonamide]
